Counter-ions that a name gives are not always drawn.
Columns and labels:
L6-myotubes [1] = assay: Measurement of intracellular cAMP levels in differentiated L6 cells (alpha screen cAMP kit), compared to isoproterenol; format: cell-based; conditions: agonist 1×10^−5 M, 15 min; for Emax at 10 µM: Rattus norvegicus, L6, 0.25 h, read-out: Biological example 2: intracellular cAMP levels, activity compared to that of isoproterenol
Protocol: (§1) L6-myoblasts were grown in Dulbecco's Modified Eagle's Medium (DMEM) containing 1 g/L glucose supplemented with 10% fetal bovine serum, 2 mM L-Glutamine, 50 U/mL penicillin, 50 μg/mL streptomycin and 10 mM HEPES. Cells were plated at 1×10^5 cells per mL in 24-well plates. After reaching 90% confluence the cells were grown in medium containing 2% FBS for 7 days where upon cells differentiated into myotubes.
Differentiated cells were serum-starved overnight and stimulated with an agonist, final concentration 1×10^−5 M, for 15 min in stimulation buffer (HBSS supplemented with 1% BSA, 5 mM HEPES and 1 mM IBMX, pH 7.4). The medium was aspirated and 100 μL of 95% EtOH was added to each well of the 24-well plate and cells were kept at −20° C. overnight. The EtOH was allowed to evaporate and 500 μL of lysis buffer (1% BSA, 5 mM HEPES and 0.3% Tween-20, pH 7.4) was added to each well. The plate was kept at −80° C. for 30 min and then at −20° C. until the day of detection when the samples were thawed. Intracellular cAMP levels were detected using an alpha screen cAMP kit (6760635D from Perkin Elmer). The activity for each compound is compared to that of isoproterenol.

L6-myotubes [2] = assay: Glucose uptake in differentiated L6-myotubes (3H-2-deoxyglucose), compared to isoproterenol; format: cell-based; conditions: agonist 1×10^−5 M, 50 nM 3H-2-deoxyglucose; for Emax at 10 µM: read-out: Biological example 1: glucose uptake, activity compared to that of isoproterenol
Protocol: as §1
Differentiated L6-myotubes were serum-starved overnight in medium containing 0.5% fatty-acid free BSA and stimulated with an agonist, with a final concentration of 1×10^−5 M. After 1 h 40 min the cells were washed with warm glucose free medium or PBS twice and another portion of agonist was added to the glucose free medium. After 20 min the cells were exposed to 50 nM ^3H-2-deoxyglucose for 10 min before washed with ice cold glucose free medium or PBS three times and lysed with 0.2 M NaOH, 400 μL/well, for 1 h at 60° C. The cell lysate was mixed with 4 mL scintillation buffer (Emulsifier Safe, Perkin Elmer) and the radioactivity was detected in a β-counter (Tri-Carb 4810TR, Perkin Elmer). The activity for each compound is compared to that of isoproterenol.

Structure (SMILES)	Emax at 10 µM (L6-myotubes [1]) [%]	Biological example 1: glucose uptake, activity compared to that of isoproterenol (L6-myotubes [2])	Biological example 2: intracellular cAMP levels, activity compared to that of isoproterenol (L6-myotubes [1])	Emax at 10 µM (L6-myotubes [2]) [%]
CO[C@@H]1CCC[C@H](C(C)(C)NC[C@H](O)c2cccc(F)c2)C1 (single isomer, unassigned) [Example 119]	< 25	+ + +	–	–
CO[C@H]1CCC[C@@H](C(C)(C)NC[C@H](O)c2cccc(F)c2)C1 (single isomer, unassigned) [Example 120]	< 25	+ + +	–	–
CO[C@@H]1CCC[C@H](C(C)(C)NC[C@H](O)c2cncc(F)c2)C1 (single isomer, unassigned) [Example 121]	< 25	+ +	–	–
CO[C@H]1CCC[C@@H](C(C)(C)NC[C@H](O)c2cncc(F)c2)C1 (single isomer, unassigned) [Example 122]	–	+ + +	+ +	–
CO[C@H]1CC[C@@H](CNC[C@H](O)c2cccc(F)c2)CC1 [Example 1, (R)-1-(3-Fluorophenyl)-2-((((1s,4S)-4-methoxycyclohexyl)-methyl)amino)ethan-1-ol]	< 25	+ +	–	–
CO[C@H]1CC[C@@H](CNC[C@H](O)c2cncc(F)c2)CC1 [Example 2, (R)-1-(5-Fluoropyridin-3-yl)-2-((((1s,4S)-4-methoxycyclohexyl)-methyl)amino)ethan-1-ol]	< 25	+ +	–	–
CO[C@H]1CC[C@H](CNC[C@H](O)c2cccc(F)c2)CC1 [Example 3, (R)-1-(3-Fluorophenyl)-2-((((1r,4R)-4-methoxycyclohexyl)methyl)amino)-ethan-1-ol]	< 25	+ +	–	–
CO[C@H]1CC[C@H](CNC[C@H](O)c2cncc(F)c2)CC1 [Example 4, (R)-1-(5-Fluoropyridin-3-yl)-2-((((1r,4R)-4-methoxycyclohexyl)-methyl)amino)ethan-1-ol]	< 25	+ +	–	–
CO[C@H]1CC[C@@H](C(C)(C)NC[C@H](O)c2cccc(F)c2)CC1 [Example 5, (R)-1-(3-Fluorophenyl)-2-((2-((1s,4S)-4-methoxycyclohexyl)propan-2-yl)-amino)ethan-1-ol]	< 25	–	–	< 25
CO[C@H]1CC[C@@H](C(C)(C)NC[C@H](O)c2cncc(F)c2)CC1 [Example 6, (R)-1-(5-fluoropyridin-3-yl)-2-((2-((1s,4S)-4-methoxycyclohexyl)propan-2-yl)amino)ethan-1-ol]	< 25	–	–	< 25
CO[C@H]1CC[C@H](C(C)(C)NC[C@H](O)c2cccc(F)c2)CC1 [Example 7]	< 25	+ + +	–	–
CO[C@H]1CC[C@H](C(C)(C)NC[C@H](O)c2cncc(F)c2)CC1 [Example 8, (R)-1-(5-Fluoropyridin-3-yl)-2-((2-((1r,4R)-4-methoxycyclohexyl)propan-2-yl)amino)ethan-1-ol]	< 25	+ + +	–	–
CO[C@H]1CC[C@@H](CCNC[C@H](O)c2cccc(F)c2)CC1 [Example 9, (R)-1-(3-Fluorophenyl)-2-((2-((1s,4S)-4-methoxycyclohexyl)ethyl)amino)-ethan-1-ol]	< 25	+ +	–	–
CO[C@H]1CC[C@@H](CCNC[C@H](O)c2cncc(F)c2)CC1 [Example 10, (R)-1-(5-Fluoropyridin-3-yl)-2-((2-((1s,4S)-4-methoxycyclohexyl)ethyl)-amino)ethan-1-ol]	< 25	+ + +	–	–
CO[C@H]1CC[C@H](CCNC[C@H](O)c2cccc(F)c2)CC1 [Example 11, (R)-1-(3-Fluorophenyl)-2-((2-((1r,4R)-4-methoxycyclohexyl)ethyl)amino)-ethan-1-ol]	< 25	–	–	25 to 50
CO[C@H]1CC[C@H](CCNC[C@H](O)c2cncc(F)c2)CC1 [Example 12, (R)-1-(5-Fluoropyridin-3-yl)-2-((2-((1r,4R)-4-methoxycyclohexyl)ethyl)-amino)ethan-1-ol]	< 25	+ +	–	–
CO[C@H]1CC[C@@H](CC(C)(C)NC[C@H](O)c2cccc(F)c2)CC1 [Example 13, (R)-1-(3-Fluorophenyl)-2-((1-((1s,4S)-4-methoxycyclohexyl)-2-methyl-propan-2-yl)amino)ethan-1-ol]	< 25	+ + +	–	–
CO[C@H]1CC[C@@H](CC(C)(C)NC[C@H](O)c2cncc(F)c2)CC1 [Example 14, (R)-1-(5-Fluoropyridin-3-yl)-2-((1-((1s,4S)-4-methoxycyclohexyl)-2-methylpropan-2-yl)amino)ethan-1-ol]	< 25	+ + +	–	–
CO[C@H]1CC[C@H](CC(C)(C)NC[C@H](O)c2cccc(F)c2)CC1 [Example 15, (R)-1-(3-Fluorophenyl)-2-((1-((1r,4R)-4-methoxycyclohexyl)-2-methyl-propan-2-yl)amino)ethan-1-ol]	< 25	+ + +	–	–
CO[C@H]1CC[C@H](CC(C)(C)NC[C@H](O)c2cncc(F)c2)CC1 [Example 16, (R)-1-(5-Fluoropyridin-3-yl)-2-((1-((1r,4R)-4-methoxycyclohexyl)-2-methyl-propan-2-yl)amino)ethan-1-ol]	< 25	+ +	–	–
COC1CCC(CCCNC[C@H](O)c2cccc(F)c2)CC1 (stereo partly drawn) [Example 17, (R)-1-(3-Fluorophenyl)-2-((3-((1r,4S)-4-methoxycyclohexyl)propyl)-amino)ethan-1-ol]	< 25	–	–	25 to 50
COC1CCC(CCCNC[C@H](O)c2cncc(F)c2)CC1 (stereo partly drawn) [Example 18, (R)-1-(5-Fluoropyridin-3-yl)-2-((3-((1r,4S)-4-methoxycyclohexyl)propyl)-amino)ethan-1-ol]	< 25	–	–	< 25
CO[C@H]1CC[C@@H](CCCNC[C@H](O)c2cccc(F)c2)CC1 [Example 19, (R)-1-(3-Fluorophenyl)-2-((3-((1s,4R)-4-methoxycyclohexyl)propyl)amino)-ethan-1-ol]	–	+ + +	+ +	–
CO[C@H]1CC[C@@H](CCCNC[C@H](O)c2cncc(F)c2)CC1 [Example 20, (R)-1-(5-Fluoropyridin-3-yl)-2-((3-((1s,4R)-4-methoxycyclohexyl)propyl)-amino)ethan-1-ol]	< 25	+ + +	–	–
CO[C@H]1CC[C@H](CCC(C)(C)NC[C@H](O)c2cccc(F)c2)CC1.Cl [Example 21, (R)-1-(3-Fluorophenyl)-2-((4-((1r,4S)-4-methoxycyclohexyl)-2-methyl-butan-2-yl)amino)ethan-1-ol hydrochloride]	< 25	+ +	–	–
COC1CCC(CCC(C)(C)NC[C@H](O)c2cncc(F)c2)CC1 (stereo partly drawn) [Example 22, (R)-1-(5-Fluoropyridin-3-yl)-2-((4-((1r,4S)-4-methoxycyclohexyl)-2-methylbutan-2-yl)amino)ethan-1-ol dihydrochloride]	< 25	–	–	25 to 50
CO[C@H]1CC[C@@H](CCC(C)(C)NC[C@H](O)c2cccc(F)c2)CC1.Cl [Example 23, (R)-1-(3-Fluorophenyl)-2-((4-((1s,4R)-4-methoxycyclohexyl)-2-methylbutan-2-yl)amino)ethan-1-ol hydrochloride]	25 to 50	+ + +	–	–
COC(=O)[C@H]1CC[C@@H](C(C)(C)NC[C@H](O)c2cccc(F)c2)CC1 [Example 95, Methyl (1S,4s)-4-(2-(((R)-2-(3-Fluorophenyl)-2-hydroxyethyl)amino)-propan-2-yl)cyclohexane-1-carboxylate]	–	+ + +	–	–
COC(=O)[C@H]1CC[C@@H](C(C)(C)NC[C@H](O)c2cncc(F)c2)CC1 [Example 96, Methyl (1S,4s)-4-(2-(((R)-2-(5-Fluoropyridin-3-yl)-2-hydroxyethyl)amino)-propan-2-yl)cyclohexane-1-carboxylate]	–	+ +	–	–

From patent US20240390298A1, “CYCLOHEXYL BETA-HYDROXY ALKYL AMINES AND MEDICAL USES THEREOF” (ATROGI AB, priority 2021, published 2024)
